Results reported in article PMC6792352, “Limited Chemical Structural Diversity Found to Modulate Thyroid Hormone Receptor in the Tox21 Chemical Library” (Environmental Health Perspectives, 2019).
Where a name gives a salt, the structure may show the parent alone.

Experiment: in vitro
Conditions: rat, gh3-tre-luc cells

Row | Compound | CC50 at 24 h (AC50 (uM) modified / 1000) | further results
1 | O=C(NOCC1CC1)c1ccc(F)c(F)c1Nc1ccc(I)cc1Cl [C.I. 1040] | 21.1 µM | –
2 | Cc1cc(C(=C2C=CC(=Nc3ccc(S(=O)(=O)O)cc3)C=C2)c2ccc(Nc3ccc(S(=O)(=O)O)cc3)cc2)cc(S(=O)(=O)O)c1N [C.I. Acid Blue 22] | > 60 µM | –
3 | O=C1C(c2[nH]c3ccc(S(=O)(=O)O)cc3c2O)=Nc2ccc(S(=O)(=O)O)cc21 [C.I. Acid Blue 74] | > 90 µM | –
4 | O=[N+]([O-])c1ccc(Nc2ccc(Nc3ccccc3)c(S(=O)(=O)O)c2)c([N+](=O)[O-])c1 [C.I. Acid Orange 3] | – | CC50 at 24 h (AC50 (uM) modified / 1000, Tox21_110001=Tox21_301886, viability, 1 nM T3 present, 24 h): 76.1 µM
5 | O=S(=O)(O)c1ccc(N=Nc2c(O)ccc3ccccc23)cc1 [C.I. Acid Orange 7] | 44.3 µM | –
6 | Cc1cc(S(=O)(=O)O)ccc1N=Nc1c(O)ccc2ccccc12 [C.I. Acid Orange 8, monosodium salt] | 19.3 µM | –
7 | Cc1ccc(N/N=c2\c(=O)cc/c(=N/Nc3ccc(S(=O)(=O)O)cc3)c2=O)c(C)c1 [C.I. Acid Orange 24, monosodium salt] | 59.4 µM | –
8 | CC(=O)Nc1cc(S(=O)(=O)O)cc2cc(S(=O)(=O)O)c(N=Nc3ccccc3)c(O)c12 [C.I. Acid Red 1] | 53.1 µM | –
9 | CCN(CC)c1ccc2c(-c3ccc(S(=O)(=O)O)cc3S(=O)(=O)[O-])c3ccc(=[N+](CC)CC)cc-3oc2c1 [C.I. Acid Red 52] | 13.4 µM | –
10 | COc1ccccc1N=Nc1c(S(=O)(=O)O)cc2cc(S(=O)(=O)O)cc(NC(C)=O)c2c1O [C.I. Acid Violet 12, disodium salt] | 36.9 µM | –
11 | CC1=NN(c2cc(Cl)c(S(=O)(=O)O)cc2Cl)C(=O)C1N=Nc1ccc(S(=O)(=O)O)cc1 (stereo not shown) [C.I. Acid Yellow 17, disodium salt] | 92.5 µM | –
12 | CC1=NN(c2cc(S(=O)(=O)O)ccc2Cl)C(=O)C1N=Nc1ccccc1 (stereo not shown) [C.I. Acid Yellow 34, monosodium salt] | 92.1 µM | –
13 | Nc1ccc(N=Nc2ccccc2)c(N)c1 [C.I. Basic Orange 2] | 64.1 µM | –
14 | Nc1ccc(N=Nc2ccc(-c3ccc(N=Nc4c(S(=O)(=O)O)cc5cc(S(=O)(=O)O)c(N=Nc6ccccc6)c(O)c5c4N)cc3)cc2)c(N)c1 [C.I. Direct Black 38] | – | CC50 at 24 h (AC50 (uM) modified / 1000, Tox21_110001=Tox21_302342, viability, 1 nM T3 present, 24 h): > 60 µM
15 | Cc1cc(-c2ccc(/N=N/c3c(S(=O)(=O)O)cc4cc(S(=O)(=O)O)cc(N)c4c3O)c(C)c2)ccc1/N=N/c1c(S(=O)(=O)O)cc2cc(S(=O)(=O)O)cc(N)c2c1O [C.I. Direct Blue 14] | 22.8 µM | –
16 | Cc1cc(-c2ccc(N=Nc3cc(S(=O)(=O)O)c4ccccc4c3N)c(C)c2)ccc1N=Nc1cc(S(=O)(=O)O)c2ccccc2c1N [C.I. Direct Red 2] | 62.5 µM | –
17 | O=C(Nc1ccc2c(O)c(N=Nc3ccc(N=Nc4ccc(S(=O)(=O)O)cc4)cc3)c(S(=O)(=O)O)cc2c1)c1ccccc1 [C.I. Direct Red 81 disodium salt] | 35.6 µM | –
18 | CCOc1ccc(N=Nc2ccc(/C=C/c3ccc(N=Nc4ccc(OCC)cc4)cc3S(=O)(=O)O)c(S(=O)(=O)O)c2)cc1 [C.I. Direct Yellow 12] | 42.7 µM | –
19 | O=C1c2c(O)ccc(Nc3ccc(CCO)cc3)c2C(=O)c2c([N+](=O)[O-])ccc(O)c21 [C.I. Disperse Blue 27] | 63.1 µM | –
20 | CCN(CCC#N)c1ccc(N=Nc2c(Cl)cc([N+](=O)[O-])cc2Cl)cc1 [C.I. Disperse Orange 37] | 33.4 µM | –
21 | O=C1c2ccccc2C(=O)C1c1nc2ccccc2c(Br)c1O [C.I. Disperse Yellow 64] | > 90 µM | –
22 | O=S(=O)(O)c1ccc(Nc2nc(Nc3ccc(/C=C/c4ccc(Nc5nc(Nc6ccc(S(=O)(=O)O)cc6)nc(N(CCO)CCO)n5)cc4S(=O)(=O)O)c(S(=O)(=O)O)c3)nc(N(CCO)CCO)n2)cc1 [C.I. Fluorescent Brightener 220] | > 60 µM | –
23 | CCCN(CCC)C(=O)CN [C.I. Solvent Black 5] | 3.55 µM | –
24 | Cc1ccccc1/N=N/c1ccc(/N=N/c2c(O)ccc3ccccc23)c(C)c1 [C.I. Solvent Red 24] | > 50 µM | –
25 | COc1ccc2sc(C(=O)Nc3nnn[nH]3)c(OC(C)C)c2c1 [CI-959] | 6.07 µM | –
